{
  "source": "patent US20230190743A1",
  "about": "“TREATMENT WITH ILEAL BILE ACID TRANSPORTER (IBAT) INHIBITORS FOR INCREASED EVENT-FREE SURVIVAL (EFS)” (Mirum Pharmaceuticals, Inc., priority 2021, published 2023)",
  "key": {"[1]": {"tested_on": "patients with PFIC due to BSEP deficiency (nontruncated BSEP mutation)", "test": "INDIGO long-term study, sBA control after >4.5 years of MRX", "format": "in vivo, human", "description": "Maralixibat (MRX) is an ileal bile acid transport (IBAT) inhibitor approved for the treatment of pruritus in patients with Alagille syndrome aged 1 year and older and under evaluation in patients with PFIC."}, "[2]": {"tested_on": "children with FIC1 or BSEP deficiencies (PFIC)", "test": "INDIGO open-label Phase 2 long-term efficacy and safety study", "format": "in vivo, human", "conditions": "for tolerability: up to 5 years of treatment", "description": "INDIGO investigated the effect of maralixibat on sBA levels and cholestatic pruritus, alongside other biochemical markers of cholestasis and liver disease in these patients.\nThe study was conducted at 12 hospitals in France, Poland, the United Kingdom, and the United States. Screening evaluations were performed in the 6 weeks prior to the start of the study. In patients without documented ATP8B1 or ABCB11 mutations, genetic testing was performed.\nThe primary efficacy endpoint was the change in mean fasting sBA levels from Baseline to Week 13 in the overall intent-to-treat (ITT) study population. The key secondary efficacy endpoint was the mean change in observer-rated pruritus (Itch Reported Outcome Observer [ItchRO(Obs)]) score from Baseline to Week 13 in the overall ITT study population. Other secondary efficacy endpoints included the mean changes from Baseline to Week 13 in total cholesterol, low- and high-density lipoprotein cholesterol (LDL-C and HDL-C, respectively), and serum triglyceride levels in the overall ITT study population. Additional efficacy and safety analyses included the change from Baseline to Week 72 and Week 240 in sBA levels, patient height and weight, bile acid synthesis (as determined by the ratio between sBA levels and 7α-hydroxy-4-cholesten-3-one [7α-C4] levels), quality of life as measured by the Pediatric Quality of Life Inventory™ (PedsQL™), mean changes in ALT, aspartate aminotransferase (AST), and bilirubin (total and direct), lipid profiles, and FSV levels. The ItchRO assessment was not performed at Week 72, so data from Week 48 were used instead.\nEfficacy and safety analyses were performed for the overall ITT study population as well as the two PFIC subtypes (FIC1 deficiency and BSEP deficiency) separately. Patients with BSEP deficiency were analyzed overall and according to their mutation type (t-BSEP and nt-BSEP). Long-term changes in pruritus scores, patient height, blood lipids, liver parameters, and transplant-free survival were assessed according to a responder analysis.\nQuantitative analysis of the 15 major sBAs and serum 7α-C4 was performed at a single site (Cincinnati) by stable isotope dilution electrospray ionization liquid chromatography-mass spectrometry (LCMS/MS) using a fully validated proprietary assay that complies with College of American Pathologists/Clinical Laboratory Improvement Amendments certification. The study protocol defined a composite response to maralixibat as achieving a ≥1.0-point reduction in ItchRO(Obs) score and a ≥70% reduction or normalization of sBA levels from Baseline. […] Pruritus was measured using the ItchRO tool, which was specifically developed and validated to evaluate pruritus in children with cholestatic liver diseases, based on a five-point scale where 0=‘none’ and 4=‘very severe’. […] The ItchRO measure was completed twice daily via an eDiary. Parents/caregivers completed the ItchRO(Obs) assessment for all patients. Additionally, children ≥9 years of age completed the ItchRO(Pt) assessment. Levels of ALT, AST, bilirubin (total and direct), lipids, and FSV were assessed using standard clinical laboratory techniques. Quality of life was assessed using the PedsQL™ questionnaire. […] The occurrence of treatment-emergent adverse events (TEAEs) and serious adverse events (SAEs) was assessed throughout the study."}, "[3]": {"conditions": "patients with sBA control, to Week 237, p<0.05"}},
  "note": "“Also recorded” adds a separate entry of the source.",
  "data": [
    {"smiles": "CCCCC1(CCCC)CS(=O)(=O)c2ccc(N(C)C)cc2[C@@H](c2ccc(OCc3ccc(C[N+]45CCN(CC4)CC5)cc3)cc2)[C@H]1O", "note": "[maralixibat]", "values": [
      {"measurement": "listing for liver transplant", "setting": "[1]; after >4.5 years of MRX, result in words", "value": "No ongoing patients were listed for liver transplant"},
      {"measurement": "long-term safety and tolerability", "setting": "[1]; most frequent TEAEs mild to moderate, result in words", "value": "safe and well tolerated"},
      {"measurement": "patients who achieved sBA control and remained on-study as of Week 237", "setting": "[1]; of n=19 with nontruncated BSEP mutation, sBA threshold ≤100 μmol/L", "value": 7, "unit": "patients"},
      {"measurement": "pruritus", "setting": "[1]; p<0.001, result in words", "value": "improved significantly"},
      {"measurement": "Growth (height z-score)", "setting": "[1]; p<0.01, result in words", "value": "improved significantly"},
      {"measurement": "native liver survival", "setting": "[1]; patients who achieved control of sBA during MRX treatment", "value": "> 4.5", "unit": "years"},
      {"measurement": "mean sBA value", "setting": "[1]; patients with sBA control, Week 237, vs. 299.6 μmol/L at baseline", "value": "44.2 (38.8) μmol/L"},
      {"measurement": "mean direct bilirubin value", "setting": "[1]; patients with sBA control, Week 237, vs. 0.6 at BL", "value": 0.1, "unit": "mg/dL"},
      {"measurement": "mean total bilirubin value", "setting": "[1]; patients with sBA control, Week 237, vs. 0.8 at BL", "value": 0.7, "unit": "mg/dL"},
      {"measurement": "mean ALT value", "setting": "[1]; patients with sBA control, Week 237, vs. 57.9 at BL", "value": 16.7, "unit": "U/L"},
      {"measurement": "mean AST value", "setting": "[1]; patients with sBA control, Week 237, vs. 62.1 at BL", "value": 26.7, "unit": "U/L"},
      {"measurement": "Mean (SE) sBA reduction", "setting": "[1]; [3]", "value": "234.4 (80.5) μmol/L"},
      {"measurement": "Mean reduction in ALT", "setting": "[1]; [3]", "value": "41.1 (14.3) U/L"},
      {"measurement": "Mean reduction in AST", "setting": "[1]; [3]", "value": "35.4 (11.5) U/L"},
      {"measurement": "Mean reduction in direct bilirubin", "setting": "[1]; patients with sBA control, to Week 237, p=0.13", "value": "0.4 (0.2) mg/dL"},
      {"measurement": "Mean reduction in total bilirubin", "setting": "[1]; patients with sBA control, to Week 237, p=0.8", "value": "0.1 (0.3) mg/dL"},
      {"measurement": "bilirubin in those with abnormal bilirubin", "setting": "[1]; result in words", "value": "normalized"},
      {"measurement": "sBA responders who achieved response during once-daily dosing", "setting": "[2]; 266 μg/kg once daily", "value": "six and Six"},
      {"measurement": "sBA responders who achieved response after switching to twice-daily dosing", "setting": "[2]; 266 μg/kg twice daily, after Week 97", "value": "one"},
      {"measurement": "TEAE cough, patients", "setting": "[2]; 18 patients", "value": 55, "unit": "%"},
      {"measurement": "TEAE diarrhea, patients", "setting": "[2]; 19 patients", "value": 58, "unit": "%"},
      {"measurement": "TEAE pyrexia, patients", "setting": "[2]; 20 patients", "value": 61, "unit": "%"},
      {"measurement": "TEAEs mild or moderate in severity", "setting": "[2]; 33 patients", "value": 58, "unit": "%"},
      {"measurement": "patients who experienced ≥1 TEAE", "setting": "[2]; 33 patients, result in words", "value": "All patients"},
      {"measurement": "sBA non-responders with transplant-free survival after >5 years", "setting": "[2]; P<0.001 vs sBA responders, result in words", "value": "none"},
      {"measurement": "mean reduction from Baseline in ItchRO(Obs) score", "setting": "[2]; Week 13, ITT population, 95% CI −1.04, −0.53, P<0.001", "value": "−0.8"},
      {"measurement": "mean reduction from Baseline in ItchRO(Pt) score", "setting": "[2]; Week 13, ITT population, 95% CI −1.55, −0.47, P=0.002", "value": "−1.0"},
      {"measurement": "patients with serious TEAEs", "setting": "[2]; during the study", "value": 15, "unit": "patients"},
      {"measurement": "patients with FIC1 deficiency who met the sBA responder criteria", "setting": "[2]; eight patients with FIC1 deficiency, result in words", "value": "No patient"},
      {"measurement": "SAEs abdominal pain, diarrhea, and gastroenteritis", "setting": "[2]; in vivo", "value": "two"},
      {"measurement": "patients who discontinued due to adverse events or liver transplantation following disease progression", "setting": "[2]; in vivo", "value": 12, "unit": "patients"},
      {"measurement": "sBA responders listed for liver transplantation who were removed from the transplant waiting list", "setting": "[2]; listed for refractory pruritus at the beginning of the study", "value": "Two"},
      {"measurement": "patients with nt-BSEP who achieved sBA response", "setting": "[2]; n=19 nt-BSEP", "value": 37, "unit": "%"},
      {"measurement": "patients with nt-BSEP with rapid and sustained reductions in sBA levels", "setting": "[2]; of 19 patients with nt-BSEP", "value": 6, "unit": "patients"},
      {"measurement": "patients with nt-BSEP who achieved sBA response (reduction >75% from baseline or <102.0 μmol/L)", "setting": "[2]; of 19 with nt-BSEP, during the study", "value": "seven"},
      {"measurement": "patients who discontinued maralixibat due to an adverse event", "setting": "[2]; one with FIC1 deficiency, seven with BSEP deficiency", "value": "Eight"},
      {"measurement": "change in sBA levels from Baseline to Week 13", "setting": "[2]; overall ITT population (33 patients), 95% CI −74.830, 41.070, P=0.884", "value": -16.9, "unit": "µmol/L"},
      {"measurement": "mean levels of sBA, ItchRO(Obs) scores, and PedsQL scores versus Baseline", "setting": "[2]; patients with FIC1 deficiency, long-term, result in words", "value": "did not change significantly"},
      {"measurement": "change in mean level of serum 7α-C4", "setting": "[2]; patients with nt-BSEP, Week 240, 95% CI 4.07, 48.50, P=0.027", "value": "+26.29 ng/mL"},
      {"measurement": "deaths during the study", "setting": "[2]; result in words", "value": "No deaths"},
      {"measurement": "effect on levels of FSV or liver transaminases", "setting": "[2]; result in words", "value": "did not have any significant detrimental effects"},
      {"measurement": "sBA non-responders with clinically meaningful (>1.0 points) reduction in ItchRO(Obs)", "setting": "[2]; sBA non-responders", "value": "Three"},
      {"measurement": "change in weight z-score (decrease)", "setting": "[2]; sBA non-responders, Week 72, 95% CI −0.606, −0.012", "value": "−0.30"},
      {"measurement": "time to decrease of sBA levels upon treatment initiation", "setting": "[2]; sBA responders", "value": "2-4 Weeks"},
      {"measurement": "change from Baseline in mean height z-score", "setting": "[2]; sBA responders, Week 72, 95% CI 0.369, 0.976, P=0.0016", "value": 0.67},
      {"measurement": "change from Baseline in mean weight z-score", "setting": "[2]; sBA responders, Week 72, 95% CI −0.001, 0.603, P=0.051", "value": 0.30},
      {"measurement": "serum ALT, AST, and bilirubin levels", "setting": "[2]; sBA responders, if elevated at Baseline, result in words", "value": "improvements and/or normalization"},
      {"measurement": "change in mean PedsQL score from Baseline to Week 240", "setting": "[2]; sBA responders, 95% CI 6.7, 40.6, P=0.014", "value": 24, "unit": "points"},
      {"measurement": "7α-C4/sBA ratio compared with Baseline", "setting": "[2]; sBA responders, result in words", "value": "generally increased; also recorded: increased rapidly"},
      {"measurement": "patients with t-BSEP who met the sBA responder criteria", "setting": "[2]; six patients with t-BSEP, result in words", "value": "No patients and No patient and none"},
      {"measurement": "tolerability", "setting": "[2]; result in words", "value": "generally safe and well tolerated"},
      {"measurement": "tolerability", "setting": "[2]; result in words, listed as Maralixibat", "value": "generally well-tolerated; also recorded: generally well tolerated"}
    ]}
  ]
}
